The results in this text go back to the NIST ThermoML archive (doi:10.1016/j.jct.2016.10.029).

Structures are written as SMILES. ± gives the expanded uncertainty stated by the source.

For data set [1] the following is noted: Crystal; DTA.
The nature of data set [2]: Molar enthalpy of transition or fusion. The following applies: Crystal; DSC.

Regarding `CCOc1cc(C=O)ccc1O` [3-ethoxy-4-hydroxybenzaldehyde], the Normal melting temperature in data set [1] is 79.83 ± 1.1 °C. Moreover, the “Molar enthalpy of transition or fusion” value in data set [2] came to 5.68 ± 0.263 kcal/mol.
